According to the supplement of paper PMC10307832:

Experiments:
Assay in all cases: relative viability (nuclei count vs DMSO), 5 days (fraction); higher = more cells survive
[1] = system: 201T
In short: (§1)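 Relative viability equals treated-well nuclei counts divided by vehicle-well nuclei counts. Counts came from 4× images of lung cancer cell lines grown in 1536-well plates for 5 days after pin-tool dosing on the day after seeding. Dosing used one drug alone or a fixed anchor-drug dose plus five library-drug doses (not always all listed) in √10 steps, and values are medians of duplicate plates.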

[2] = system: HCC-78
In short: as §1

[3] = system: HARA
In short: as §1

[4] = system: NCI-H2023
In short: as §1

[5] = system: NCI-H2009
In short: as §1

[6] = system: NCI-H460
In short: as §1

[7] = system: NCI-H1993
In short: as §1

[8] = system: LCLC-97TM1
In short: as §1

[9] = system: HCC-15
In short: as §1

[10] = system: LCLC-103H
In short: as §1

[11] = system: HCC-44
In short: as §1

[12] = system: RERF-LC-KJ
In short: as §1

## O=c1[nH]c2ccccc2n1C1CCN(CCCC(c2ccc(F)cc2)c2ccc(F)cc2)CC1 [Pimozide] + Nc1nc2[nH]cc(CCc3ccc(C(=O)N[C@@H](CCC(=O)O)C(=O)O)cc3)c2c(=O)[nH]1 [Pemetrexed] (partner 0.2 µM)
[1]; first compound 0.08 µM
  relative viability: 0.31
[1]; first compound 0.253 µM
  relative viability: 0.334
[1]; first compound 0.8 µM
  relative viability: 0.332
[1]; first compound 2.53 µM
  relative viability: 0.312
[1]; first compound 8 µM
  relative viability: 0.276
[2]; first compound 0.08 µM
  relative viability: 0.911
[2]; first compound 0.8 µM
  relative viability: 0.91
[2]; first compound 2.53 µM
  relative viability: 0.872
[2]; first compound 8 µM
  relative viability: 0.87
[3]; first compound 0.08 µM
  relative viability: 0.245
[3]; first compound 0.253 µM
  relative viability: 0.262
[3]; first compound 0.8 µM
  relative viability: 0.241
[3]; first compound 2.53 µM
  relative viability: 0.282
[3]; first compound 8 µM
  relative viability: 0.198
[4]; first compound 0.08 µM
  relative viability: 0.215
[4]; first compound 0.253 µM
  relative viability: 0.231
[4]; first compound 0.8 µM
  relative viability: 0.226
[4]; first compound 2.53 µM
  relative viability: 0.179
[4]; first compound 8 µM
  relative viability: 0.164
[5]; first compound 0.08 µM
  relative viability: 1.07
[5]; first compound 0.253 µM
  relative viability: 1
[5]; first compound 0.8 µM
  relative viability: 0.975
[5]; first compound 2.53 µM
  relative viability: 0.963
[5]; first compound 8 µM
  relative viability: 0.973
[6]; first compound 0.08 µM
  relative viability: 0.05
[6]; first compound 0.253 µM
  relative viability: 0.0643
[6]; first compound 0.8 µM
  relative viability: 0.0627
[6]; first compound 2.53 µM
  relative viability: 0.0654
[6]; first compound 8 µM
  relative viability: 0.0685
[7]; first compound 0.08 µM
  relative viability: 0.487
[7]; first compound 0.253 µM
  relative viability: 0.548
[7]; first compound 0.8 µM
  relative viability: 0.512
[7]; first compound 2.53 µM
  relative viability: 0.482
[7]; first compound 8 µM
  relative viability: 0.501
[8]; first compound 0.08 µM
  relative viability: 0.2
[8]; first compound 0.253 µM
  relative viability: 0.177
[8]; first compound 0.8 µM
  relative viability: 0.19
[8]; first compound 2.53 µM
  relative viability: 0.18
[8]; first compound 8 µM
  relative viability: 0.156
[9]; first compound 0.08 µM
  relative viability: 0.229
[9]; first compound 0.253 µM
  relative viability: 0.226
[9]; first compound 0.8 µM
  relative viability: 0.221
[9]; first compound 2.53 µM
  relative viability: 0.213
[9]; first compound 8 µM
  relative viability: 0.205
[10]; first compound 0.08 µM
  relative viability: 0.435
[10]; first compound 0.253 µM
  relative viability: 0.425
[10]; first compound 0.8 µM
  relative viability: 0.471
[10]; first compound 2.53 µM
  relative viability: 0.385
[10]; first compound 8 µM
  relative viability: 0.468
[11]; first compound 0.08 µM
  relative viability: 0.67
[11]; first compound 0.253 µM
  relative viability: 0.666
[11]; first compound 0.8 µM
  relative viability: 0.577
[11]; first compound 2.53 µM
  relative viability: 0.618
[11]; first compound 8 µM
  relative viability: 0.577
[12]; first compound 0.08 µM
  relative viability: 0.452
[12]; first compound 0.253 µM
  relative viability: 0.47
[12]; first compound 0.8 µM
  relative viability: 0.466
